US7879868B2 (Novartis AG, priority 2002, dated 2011)
Read-outs that look alike come from different tables or passages of the source.

Key:
[1] = Effect of imatinib on irinotecan pharmacokinetics in mice; details: for bioavailability: mouse, plasma, oral; for SN-38 plasma exposure: irinotecan 10 mg/kg oral
From the text: Ci: rate of clearance; Ka: absorption rate; F: calculated bioavailability (relative to intravenous dosing).

[2] = test system: Saos2BCRP#4 cells; assay: cells
[3] = test system: Saos2BCRPMUT#10 cells; assay: cells
[4] = test system: Saos2pcDNA#3#2 cells; assay: Growth inhibition in vector control Saos2 cells; format: cell-based, human
[5] = target: T1, BCRP (Homo sapiens, UniProt Q9UNQ0)
T1 sequence (Q9UNQ0 1-655): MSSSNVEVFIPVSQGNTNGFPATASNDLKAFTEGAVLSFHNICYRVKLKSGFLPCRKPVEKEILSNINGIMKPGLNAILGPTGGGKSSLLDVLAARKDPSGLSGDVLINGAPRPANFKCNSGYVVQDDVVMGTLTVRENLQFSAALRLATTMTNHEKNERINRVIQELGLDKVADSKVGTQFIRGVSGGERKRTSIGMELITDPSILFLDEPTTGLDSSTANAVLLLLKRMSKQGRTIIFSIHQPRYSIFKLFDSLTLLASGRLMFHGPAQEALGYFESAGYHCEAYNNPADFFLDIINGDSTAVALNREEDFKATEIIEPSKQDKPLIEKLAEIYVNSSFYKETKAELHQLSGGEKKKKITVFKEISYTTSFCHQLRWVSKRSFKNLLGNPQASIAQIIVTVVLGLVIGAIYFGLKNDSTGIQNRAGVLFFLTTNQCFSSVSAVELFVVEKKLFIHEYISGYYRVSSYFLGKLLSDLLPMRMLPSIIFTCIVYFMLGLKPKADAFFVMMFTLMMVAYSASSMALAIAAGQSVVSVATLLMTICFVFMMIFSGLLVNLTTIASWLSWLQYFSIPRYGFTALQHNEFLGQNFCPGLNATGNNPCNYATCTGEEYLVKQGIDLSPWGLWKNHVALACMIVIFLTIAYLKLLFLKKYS

[6] = read-out: concentration of SN-38 causing 50% growth inhibition (IC50), imatinib 0 μM
[7] = read-out: concentration of SN-38 causing 50% growth inhibition (IC50), imatinib 0.1 μM
[8] = read-out: concentration of SN-38 causing 50% growth inhibition (IC50), imatinib 0.3 μM
[9] = read-out: concentration of SN-38 causing 50% growth inhibition (IC50), imatinib 1.0 μM
[10] = read-out: concentration of SN-38 causing 50% growth inhibition (IC50), imatinib 3.0 μM
[11] = Homo sapiens, SAOS-2, read-out: concentration of topotecan causing 50% growth inhibition, in presence of 1 μM imatinib
[12] = Homo sapiens, SAOS-2, read-out: concentration of topotecan causing 50% growth inhibition, in presence of 3 μM imatinib
[13] = Homo sapiens, SAOS-2, read-out: concentration of topotecan causing 50% growth inhibition, in presence of 5 μM imatinib
[14] = Homo sapiens, SAOS-2, read-out: concentration of topotecan causing 50% growth inhibition, topotecan alone

CCc1c2c(nc3ccc(OC(=O)N4CCC(N5CCCCC5)CC4)cc13)-c1cc3c(c(=O)n1C2)COC(=O)[C@]3(O)CC [IRN]
bioavailability [1]: 23 ± 2% | bioavailability ([1]; 10 mg/kg): 9 ± 2%

CCc1c2c(nc3ccc(O)cc13)-c1cc3c(c(=O)n1C2)COC(=O)[C@]3(O)CC [SN-38, 7-ethyl-10-hydroxycamptothecin]
IC50 [2, 6]: > 100 nM | IC50 [2, 7]: 82 nM | IC50 [2, 8]: 29 nM | IC50 [2, 9]: 14 nM | IC50 [2, 10]: 7 nM | SN-38 plasma exposure ([1]; mice, with imatinib 50 mg/kg oral): 775 ng/h/mL | SN-38 plasma exposure ([1]; mice, without imatinib): 263 ng/h/mL | IC50 [3, 6]: 1.7 nM | IC50 [3, 7]: 1.7 nM | IC50 [3, 8]: 1.6 nM | IC50 [3, 9]: 1.7 nM | IC50 [3, 10]: 1.6 nM | IC50 [4, 6]: 2.9 nM | IC50 [4, 7]: 2.7 nM | IC50 [4, 8]: 2.7 nM | IC50 [4, 9]: 3.3 nM | IC50 [4, 10]: 3.7 nM

Cc1ccc(NC(=O)c2ccc(CN3CCN(C)CC3)cc2)cc1Nc1nccc(-c2cccnc2)n1 [imatinib]
reversal of BCRP-mediated resistance to topotecan (summary of Table 1) [5]: complete reversal of BCRP-mediated resistance to topotecan | effect of imatinib on oral bioavailability of irinotecan ([1]; mice, imatinib 50 mg/kg oral + irinotecan 10 mg/kg oral): enhances oral bioavailability of irinotecan

CC[C@@]1(O)C(=O)OCc2c1cc1n(c2=O)Cc2cc3c(CN(C)C)c(O)ccc3nc2-1 [topotecan]
IC50 ([2]; Homo sapiens, SAOS-2, read-out: IC50 concentration of topotecan, Saos2BCRP#4 cells): 167 nM | IC50 [2, 11]: 35 nM | IC50 [2, 12]: 24 nM | IC50 [2, 13]: 22 nM | IC50 [2, 14]: 254 nM | IC50 ([3]; Homo sapiens, SAOS-2, read-out: IC50 concentration of topotecan, Saos2Mut#10 cells): 9 nM | IC50 [3, 11]: 18 nM | IC50 [3, 12]: 9.9 nM | IC50 [3, 13]: 15 nM | IC50 [3, 14]: 9 nM | IC50 ([4]; Homo sapiens, SAOS-2, Saos2pcDNA cells, read-out: IC50 concentration of topotecan): 16 nM | IC50 ([4]; Homo sapiens, SAOS-2, in presence of 1 μM imatinib, read-out: concentration of topotecan causing 50% growth inhibition): 23 nM | IC50 ([4]; Homo sapiens, SAOS-2, in presence of 3 μM imatinib, read-out: concentration of topotecan causing 50% growth inhibition): 20 nM | IC50 ([4]; Homo sapiens, SAOS-2, in presence of 5 μM imatinib, read-out: concentration of topotecan causing 50% growth inhibition): 23 nM | IC50 ([4]; Homo sapiens, SAOS-2, topotecan alone, read-out: concentration of topotecan causing 50% growth inhibition): 20 nM
